The nature of data set [1]: Thioflavin T fibrillation assay. Type of data set: physicochemical. Conditions: for Time taken to detect increase in fluorescence intensity: ThT fibrillation assay, peptide 1 mg/mL in 25 mM sodium acetate buffer pH 4.0, 6 days at 37 °C with shaking, >144 h = no increase. Put shortly: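 Peptides at 1 mg/mL in 25 mM sodium acetate pH 4.0 with ThT (from 0.25 mM stock), incubated 6 days at 37 °C with intermittent orbital shaking at 500–750 rpm. Fluorescence (ex 444/em 480 nm) read every 30 min; value is average time to a rise in baseline-corrected signal.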

The nature of data set [2]: Pharmacokinetic determination via IV and SC administration in Sprague Dawley rats. Conditions: male, rat, plasma, 20 nmol/kg.
The next data set can be described thus: in vivo. The conditions noted are these: male, Sprague-Dawley, rat, 20 nmol/kg.

The results in this text go back to patent US20240067693A1, “POLYPEPTIDES AND USES THEREOF” (MEDIMMUNE LIMITED, priority 2020, published 2024).

Numbered stars: 1 amine (or outer) side, 2 acyl side, 3 side chain; on linkers, the order of the positions; unused ones are H or OH. Bridge positions count the residues as written; N and C are the ends. Square brackets hold non-standard residues; d marks the D form. Side chains are listed from the residue outwards. Peptide text beside a SMILES is read from it. * marks the point of attachment. C20 diacid = O=C(O)CCCCCCCCCCCCCCCCCCC(=O)*; C18 diacid = O=C(O)CCCCCCCCCCCCCCCCC(=O)*; γGlu = O=C(O)[C@H](CCC(=O)[*:2])N[*:1]; αMeF = C[C@](N)(Cc1ccccc1)C(=O)O; AEEA = NCCOCCOCC(=O)O

For `CC[C@H](C)[C@H](NC(=O)[C@@H]1CCCN1C(=O)CNC(=O)[C@](C)(Cc1ccccc1)NC(=O)[C@H](CC(N)=O)NC(=O)[C@H](CC(N)=O)NC(=O)[C@H](CO)NC(=O)[C@H](CO)NC(=O)[C@H](Cc1c[nH]cn1)NC(=O)[C@H](CCCNC(=N)N)NC(=O)[C@H](CC(C)C)NC(=O)[C@H](Cc1ccccc1)NC(=O)[C@H](CCC(=O)O)NC(=O)[C@H](C)NC(=O)[C@H](CC(C)C)NC(=O)[C@H](CCCNC(=N)N)NC(=O)[C@H](CCC(N)=O)NC(=O)[C@@H](NC(=O)[C@H](C)NC(=O)[C@@H]1CSSC[C@H](NC(=O)CC[C@H](NC(=O)CCCCCCCCCCCCCCCCC(=O)O)C(=O)O)C(=O)N[C@@H](CC(N)=O)C(=O)N[C@@H]([C@@H](C)O)C(=O)N[C@@H](C)C(=O)N[C@@H]([C@@H](C)O)C(=O)N1)[C@@H](C)O)C(=O)N[C@@H](CC(C)C)C(=O)N1CCC[C@H]1C(=O)N1CCC[C@H]1C(=O)N[C@H](C(=O)N[C@@H](CC(N)=O)C(=O)N[C@H](C(=O)NCC(=O)N[C@@H](CO)C(=O)N[C@@H](CC(N)=O)C(=O)N[C@H](C(=O)N[C@@H](Cc1ccc(O)cc1)C(N)=O)[C@@H](C)O)C(C)C)[C@@H](C)O` [Peptide 10, C18diacid-γE-[CNTATC]ATQRLAEFLRHSSNN(αMePhe)GPILPPTNVGSNTY-amide] ({C18 diacid-γGlu}-CNTATCATQRLAEFLRHSSNN[αMeF]GPILPPTNVGSNTY-NH2; disulfide 1-6), the “Time taken to detect increase in fluorescence intensity” value (“Time taken to detect increase” for short) in data set [1] was above 144 h. Moreover, the half-life in data set [2] (iv) was 10.1 h; in data set [2] (sc), 8.8 h.
Take `CC[C@H](C)[C@H](NC(=O)[C@@H]1CCCN1C(=O)CNC(=O)[C@](C)(Cc1ccccc1)NC(=O)[C@H](CC(N)=O)NC(=O)[C@H](CC(N)=O)NC(=O)[C@H](CO)NC(=O)[C@H](CO)NC(=O)[C@H](Cc1c[nH]cn1)NC(=O)[C@H](CCCNC(=N)N)NC(=O)[C@H](CC(C)C)NC(=O)[C@H](Cc1ccccc1)NC(=O)[C@H](CCC(=O)O)NC(=O)[C@H](C)NC(=O)[C@H](CC(C)C)NC(=O)[C@H](CCCNC(=N)N)NC(=O)[C@H](CCC(N)=O)NC(=O)[C@@H](NC(=O)[C@H](C)NC(=O)[C@@H]1CSSC[C@H](NC(=O)[C@H](CCCCN)NC(=O)[C@@H](N)CCCCNC(=O)CC[C@H](NC(=O)CCCCCCCCCCCCCCCCC(=O)O)C(=O)O)C(=O)N[C@@H](CC(N)=O)C(=O)N[C@@H]([C@@H](C)O)C(=O)N[C@@H](C)C(=O)N[C@@H]([C@@H](C)O)C(=O)N1)[C@@H](C)O)C(=O)N[C@@H](CC(C)C)C(=O)N1CCC[C@H]1C(=O)N1CCC[C@H]1C(=O)N[C@H](C(=O)N[C@@H](CC(N)=O)C(=O)N[C@H](C(=O)NCC(=O)N[C@@H](CO)C(=O)N[C@@H](CC(N)=O)C(=O)N[C@H](C(=O)N[C@@H](Cc1ccc(O)cc1)C(N)=O)[C@@H](C)O)C(C)C)[C@@H](C)O` [Peptide 12, K(γE-C18diacid)K[CNTATC]ATQRLAEFLRHSSNN(αMePhe)GPILPPTNVGSNTY-amide] (H-K([γGlu-C18 diacid])KCNTATCATQRLAEFLRHSSNN[αMeF]GPILPPTNVGSNTY-NH2; disulfide 3-8; N-terminus assumed): in data set [1], the “Time taken to detect increase” value is listed as above 144 h. Also, the half-life is 9.2 h in data set [2] (iv) and 9.7 h in data set [2] (sc).
For the molecule `CC[C@H](C)[C@H](NC(=O)[C@@H]1CCCN1C(=O)CNC(=O)[C@](C)(Cc1ccccc1)NC(=O)[C@H](CC(N)=O)NC(=O)[C@H](CC(N)=O)NC(=O)[C@H](CO)NC(=O)[C@H](CO)NC(=O)[C@H](Cc1c[nH]cn1)NC(=O)[C@H](CCCNC(=N)N)NC(=O)[C@H](CC(C)C)NC(=O)[C@H](Cc1ccccc1)NC(=O)[C@H](CC(N)=O)NC(=O)[C@H](C)NC(=O)[C@H](CC(C)C)NC(=O)[C@H](CCCNC(=N)N)NC(=O)[C@H](CCC(N)=O)NC(=O)[C@@H](NC(=O)[C@H](C)NC(=O)[C@@H]1CSSC[C@H](NC(=O)[C@H](CCCCN)NC(=O)[C@@H](N)CCCCNC(=O)CC[C@H](NC(=O)CCCCCCCCCCCCCCCCC(=O)O)C(=O)O)C(=O)N[C@@H](CC(N)=O)C(=O)N[C@@H]([C@@H](C)O)C(=O)N[C@@H](C)C(=O)N[C@@H]([C@@H](C)O)C(=O)N1)[C@@H](C)O)C(=O)N[C@@H](CC(C)C)C(=O)N1CCC[C@H]1C(=O)N1CCC[C@H]1C(=O)N[C@H](C(=O)N[C@@H](CCC(=O)O)C(=O)N[C@H](C(=O)NCC(=O)N[C@@H](CO)C(=O)N[C@@H](CC(N)=O)C(=O)N[C@H](C(=O)N[C@@H](Cc1ccc(O)cc1)C(N)=O)[C@@H](C)O)C(C)C)[C@@H](C)O` [Peptide 15, K(γE-C18diacid)K[CNTATC]ATQRLANFLRHSSNN(αMePhe)GPILPPTEVGSNTY-amide] (H-K([γGlu-C18 diacid])KCNTATCATQRLANFLRHSSNN[αMeF]GPILPPTEVGSNTY-NH2; disulfide 3-8; N-terminus assumed), in data set [1], the “Time taken to detect increase” value is recorded as above 144 h. Besides, the half-life in data set [2] (iv) is 10.4 h; in data set [2] (sc), 11.5 h.
`CC[C@H](C)[C@H](NC(=O)[C@@H]1CCCN1C(=O)CNC(=O)[C@](C)(Cc1ccccc1)NC(=O)[C@H](CC(N)=O)NC(=O)[C@H](CC(N)=O)NC(=O)[C@H](CO)NC(=O)[C@H](CO)NC(=O)[C@H](Cc1c[nH]cn1)NC(=O)[C@H](CCCNC(=N)N)NC(=O)[C@H](CC(C)C)NC(=O)[C@H](Cc1ccccc1)NC(=O)[C@H](CC(N)=O)NC(=O)[C@H](C)NC(=O)[C@H](CC(C)C)NC(=O)[C@H](CCCNC(=N)N)NC(=O)[C@H](CCC(N)=O)NC(=O)[C@@H](NC(=O)[C@H](C)NC(=O)[C@@H]1CSSC[C@H](NC(=O)[C@@H](N)CCCCNC(=O)CC[C@H](NC(=O)CC[C@H](NC(=O)CCCCCCCCCCCCCCCCC(=O)O)C(=O)O)C(=O)O)C(=O)N[C@@H](CC(N)=O)C(=O)N[C@@H]([C@@H](C)O)C(=O)N[C@@H](C)C(=O)N[C@@H]([C@@H](C)O)C(=O)N1)[C@@H](C)O)C(=O)N[C@@H](CC(C)C)C(=O)N1CCC[C@H]1C(=O)N1CCC[C@H]1C(=O)N[C@H](C(=O)N[C@@H](CCC(=O)O)C(=O)N[C@H](C(=O)NCC(=O)N[C@@H](CO)C(=O)N[C@@H](CC(N)=O)C(=O)N[C@H](C(=O)N[C@@H](Cc1ccc(O)cc1)C(N)=O)[C@@H](C)O)C(C)C)[C@@H](C)O` [Peptide 18, K(γE-γE-C18diacid)[CNTATC]ATQRLANFLRHSSNN(αMePhe)GPILPPTEVGSNTY-amide] (H-K([γGlu-γGlu-C18 diacid])CNTATCATQRLANFLRHSSNN[αMeF]GPILPPTEVGSNTY-NH2; disulfide 2-7; N-terminus assumed): the “Time taken to detect increase” value in data set [1] is on record as above 144 h. The half-life was 12 h in data set [2] (iv) and 13.6 h in data set [2] (sc).
As to `CC[C@H](C)[C@H](NC(=O)[C@@H]1CCCN1C(=O)CNC(=O)[C@](C)(Cc1ccccc1)NC(=O)[C@H](CC(N)=O)NC(=O)[C@H](CC(N)=O)NC(=O)[C@H](CO)NC(=O)[C@H](CO)NC(=O)[C@H](Cc1c[nH]cn1)NC(=O)[C@H](CCCNC(=N)N)NC(=O)[C@H](CC(C)C)NC(=O)[C@H](Cc1ccccc1)NC(=O)[C@H](CC(N)=O)NC(=O)[C@H](C)NC(=O)[C@H](CC(C)C)NC(=O)[C@H](CCCNC(=N)N)NC(=O)[C@H](CCC(N)=O)NC(=O)[C@@H](NC(=O)[C@H](C)NC(=O)[C@@H]1CSSC[C@H](NC(=O)[C@@H](N)CCCCNC(=O)CC[C@H](NC(=O)CC[C@H](NC(=O)CCCCCCCCCCCCCCCCC(=O)O)C(=O)O)C(=O)O)C(=O)N[C@@H](CC(N)=O)C(=O)N[C@@H]([C@@H](C)O)C(=O)N[C@@H](C)C(=O)N[C@@H]([C@@H](C)O)C(=O)N1)[C@@H](C)O)C(=O)N[C@@H](CC(C)C)C(=O)N1CCC[C@H]1C(=O)N1CCC[C@H]1C(=O)N[C@H](C(=O)N[C@@H](CC(N)=O)C(=O)N[C@H](C(=O)NCC(=O)N[C@@H](CO)C(=O)N[C@@H](CC(N)=O)C(=O)N[C@H](C(=O)N[C@@H](Cc1ccc(O)cc1)C(N)=O)[C@@H](C)O)C(C)C)[C@@H](C)O` [Peptide 20, K(γE-γE-C18diacid)[CNTATC]ATQRLANFLRHSSNN(αMePhe)GPILPPTNVGSNTY-amide] (H-K([γGlu-γGlu-C18 diacid])CNTATCATQRLANFLRHSSNN[αMeF]GPILPPTNVGSNTY-NH2; disulfide 2-7; N-terminus assumed), the “Time taken to detect increase” value in data set [1] is above 144 h. The figures for the half-life in data set [2] (iv) and in data set [2] (sc) were 10 h and 10.8 h, respectively.
In the case of `CC[C@H](C)[C@H](NC(=O)[C@@H]1CCCN1C(=O)CNC(=O)[C@H](Cc1ccccc1)NC(=O)[C@H](CC(N)=O)NC(=O)[C@H](CC(N)=O)NC(=O)[C@H](CO)NC(=O)[C@H](CO)NC(=O)[C@H](Cc1c[nH]cn1)NC(=O)[C@@H](NC(=O)[C@H](CC(C)C)NC(=O)[C@H](Cc1ccccc1)NC(=O)[C@H](CC(N)=O)NC(=O)[C@H](C)NC(=O)[C@H](CC(C)C)NC(=O)[C@H](CCCNC(=N)N)NC(=O)[C@H](CCC(N)=O)NC(=O)[C@@H](NC(=O)[C@H](C)NC(=O)[C@@H]1CSSC[C@H](NC(=O)[C@H](CCCCN)NC(=O)COCCOCCNC(=O)COCCOCCNC(=O)CC[C@H](NC(=O)CCCCCCCCCCCCCCCCCCC(=O)O)C(=O)O)C(=O)N[C@@H](CC(N)=O)C(=O)N[C@@H]([C@@H](C)O)C(=O)N[C@@H](C)C(=O)N[C@@H]([C@@H](C)O)C(=O)N1)[C@@H](C)O)C(C)C)C(=O)N[C@@H](CC(C)C)C(=O)N1CCC[C@H]1C(=O)N1CCC[C@H]1C(=O)N[C@H](C(=O)N[C@@H](CC(N)=O)C(=O)N[C@H](C(=O)NCC(=O)N[C@@H](CO)C(=O)N[C@@H](CC(N)=O)C(=O)N[C@H](C(=O)N[C@@H](Cc1ccc(O)cc1)C(N)=O)[C@@H](C)O)C(C)C)[C@@H](C)O` [Peptide 113] ({C20 diacid-γGlu-AEEA-AEEA}-KCNTATCATQRLANFLVHSSNNFGPILPPTNVGSNTY-NH2; disulfide 2-7), the fibril-forming tendency result in data set [1] (ThT assay, 1 mg/mL, pH 4.0, 37 °C, compared to pramlintide) was “increases the fibril-forming tendency”. In data set [1], the “Time taken to detect increase” value is below 5 h. Further, the half-life in “in vivo” (iv) was 11.2 h; in the data set “in vivo” (sc) it was 18.2 h.
